Source: ChEMBL document CHEMBL4118171, “Brain penetrant kinase inhibitors: Learning from kinase neuroscience discovery” (Bioorg Med Chem Lett, 2018)
One block for each compound: values may come before it.

What was measured:
[1] = Ratio of drug level in brain to plasma in rat; assay type: ADME; conditions: read-out: BPR
[2] = test system: MDR1; experiment: Efflux ratio of apparent permeability in MDCK2-MDR1; assay type: ADME, cell-based, Canis lupus familiaris; conditions: dog, MDCK-MDR1
[3] = Ratio of drug level in brain to plasma in C57BL6 mouse at 30 mg/kg, po after 1 hr by LC/MS analysis; assay type: ADME, organism-based; conditions: read-out: BPR
[4] = Drug uptake in mouse brain at 5 mg/kg/day, po after 30 to 60 mins by LC/MS analysis; assay type: ADME, organism-based; conditions: in vivo, read-out: Drug uptake
[5] = Drug uptake in mouse brain up to 20 mg/kg/day, po after 30 to 60 mins by LC/MS analysis relative to plasma; assay type: ADME, organism-based
[6] = Drug uptake in mouse CSF up to 20 mg/kg/day, po after 30 to 60 mins by LC/MS analysis relative to brain; assay type: ADME, organism-based, Cerebrospinal fluid; conditions: in vivo
[7] = Ratio of drug level in plasma to CSF in Alzheimer's disease patient at 50 to 125 mg, po qd for 4 weeks measured 23 to 28 hrs post last dose by LC/MS analysis; assay type: ADME, organism-based; conditions: human, in vivo
[8] = test system: Rattus norvegicus; experiment: In vivo inhibition of Plk2-mediated phosphorylation of alpha-synuclein in Sprague-Dawley rat brain assessed as reduction in pS129-alpha-synuclein levels at 200 mg/kg, po administered as single dose after 6 hrs by sandwich ELISA relative to control; assay type: functional
[9] = Ratio of AUC (0 to 3 hrs) in FVB mouse brain to plasma at 1 mg/kg, iv by LC-MS/MS analysis; assay type: ADME, organism-based; conditions: read-out: Ratio AUC
[10] = Ratio of drug level in Sprague-Dawley rat brain to plasma at 100 mg/kg, po administered as single dose after 6 hrs by LC-MS/MS analysis; assay type: ADME, organism-based; conditions: read-out: BPR
[11] = Ratio of drug level in Sprague-Dawley rat brain to plasma at 200 mg/kg, po administered as single dose after 6 hrs by LC-MS/MS analysis; assay type: ADME, organism-based; conditions: read-out: BPR
[12] = test system: Rattus norvegicus; experiment: In vivo inhibition of Plk2-mediated phosphorylation of alpha-synuclein in Sprague-Dawley rat brain assessed as reduction in pS129-alpha-synuclein levels at 100 mg/kg, po administered as single dose after 6 hrs by sandwich ELISA relative to control; assay type: functional
[13] = test system: Mus musculus; experiment: In vivo target occupancy at CK1epsilon in C57BL/6J mouse CNS at 10 mg/kg, sc; assay type: functional
[14] = test system: MDR1; experiment: Efflux ratio of apparent permeability in MDCK cells expressing human MDR1; assay type: ADME, cell-based, Canis lupus familiaris; conditions: dog
[15] = Unbound Cmax in C57BL/6J mouse brain at 10 mg/kg, sc; assay type: ADME, organism-based; conditions: in vivo
[16] = test system: Mus musculus; experiment: In vivo target occupancy at CK1delta in C57BL/6J mouse CNS at 10 mg/kg, sc; assay type: functional
[17] = Efflux ratio of apparent permeability in human Caco2 cells by HPLC-MS/MS analysis; assay type: ADME, cell-based; conditions: Caco-2
[18] = Ratio of drug level in brain to plasma in Sprague-Dawley rat at 5 mg/kg, po after 3 hrs by LC-MS/MS analysis; assay type: ADME, organism-based; conditions: read-out: BPR

- Kp [1]: 0.007
SMILES: CN(CCNc1ccn2ncc(-c3ccc(C(N)=O)cc3)c2n1)C(=O)OC(C)(C)C

- efflux ratio [2]: < 2
SMILES: CN1C(=O)[C@@H](NC(=O)c2nnc(Cc3ccccc3)o2)COc2cccnc21

- Kp at 1 h [3]: 0.4
SMILES: Cc1ccc(C(=O)NNC(=O)c2c(C)cccc2Cl)cc1C#Cc1cnc2ccccc2c1 [VODOBATINIB]

- Kp [9]: 0.3
- Kp at 6 h [10]: 0.42
- Kp at 6 h [11]: 0.46
SMILES: CC[C@@]12COCCN1c1nc(-n3ccnc3-c3ccccc3)ncc1N(C)C2=O
- inhibition in vivo at 200 mg/kg [8]: 41.4%
- inhibition in vivo at 100 mg/kg [12]: 34.5%

The remaining lines, values behind:

SMILES: COc1ncccc1-c1cnn2ccc(N3CCN(C(=O)OC(C)C)CC3)nc12
- Kp [1]: > 2

SMILES: CN1CCN(CCOc2cc(OC3CCOCC3)c3c(Nc4c(Cl)ccc5c4OCO5)ncnc3c2)CC1 [SARACATINIB]
- concentration [4]: 50 nM
- Drug uptake [5]: 50%
- Drug uptake [6]: 35%
- Ratio [7]: 0.4

SMILES: Nc1nccc(-c2c(-c3ccc(F)cc3)ncn2C2CCN(Cc3ccon3)CC2)n1
- Occ [13]: 58%
- efflux ratio [14]: 3.2
- fCmax [15]: 117 nM
- Occ [16]: 88%

SMILES: CN1CCN(c2cc(-c3ccncc3)c(-c3ccc4ccccc4c3)nn2)CC1 [MW-150]
- efflux ratio [17]: 0.9
- Kp at 3 h [18]: > 0.9
